Experimental data as given in patent US9278958B2, “Anti-cancer compounds” (KATHOLIEKE UNIVERSITEIT LEUVEN, priority 2012, dated 2016).
Read-outs that look alike come from different tables or passages of the source.

Legend:
MT-2 cells = assay: Cytostatic assay, MT-2; assay type: cell-based; settings: Homo sapiens, MT2; Table 2
Experimental: (§1) To each well of a 96-well microtiter plate were added 5-7.5×10^4 cells and a given amount of the test compound. The cells were allowed to proliferate for 48 h to 96 h (depending on the nature of the cell line) at 37° C. in a humidified CO2-controlled atmosphere. At the end of the incubation period, the cells were counted in a Coulter Counter (Coulter Electronics Ltd, Harpenden Herts, United Kingdom).

C8166 cells = assay: Cytostatic assay, C8166; assay type: cell-based; settings: Homo sapiens, Table 2
Experimental: as §1

[1] = test system: LNCaP (UZ) prostate cancer cells; assay: Cytostatic assay, LNCaP (UZ); assay type: cell-based; settings: Homo sapiens, Table 4
Experimental: as §1

[2] = test system: HT29 colorectal carcinoma cells; assay: Cytostatic assay, HT29; assay type: cell-based; settings: Homo sapiens, HT-29; Table 3
Experimental: as §1

[3] = test system: HL60, human leukemia cells; assay: Cytostatic assay, HL-60; assay type: cell-based; settings: Table 2
Experimental: as §1

[4] = test system: PC3 (rega) prostate cancer cells; assay: Cytostatic assay, PC3 (rega); assay type: cell-based; settings: Table 4
Experimental: as §1

[5] = test system: U937, human monocytic cells; assay: Cytostatic assay, U937; assay type: cell-based; settings: U-937, Table 2
Experimental: as §1

HUT-78 cells = assay: Cytostatic assay, HUT-78; assay type: cell-based; settings: Homo sapiens, HuT78; Table 2
Experimental: as §1

[6] = test system: PNT1A (UZ) prostate cells; assay: Cytostatic assay, PNT1A (UZ); assay type: cell-based; settings: Homo sapiens, Table 4
Experimental: as §1

L1210 cells = assay: Cytostatic assay, L1210; assay type: cell-based; settings: Mus musculus, Table 2
Experimental: as §1

[7] = test system: FM3A mammary carcinoma cells; assay: Cytostatic assay, FM3A; assay type: cell-based, murine; settings: Mus musculus, Table 3
Experimental: as §1

Huh-7 hepatoma cells = assay: Cytostatic assay, Huh-7; assay type: cell-based; settings: Homo sapiens, Table 4
Experimental: as §1

Sup T1 cells = assay: Cytostatic assay, Sup T1; assay type: cell-based; settings: Homo sapiens, Table 2, read-out: Cytostatic activity (μM) Sup T 1
Experimental: as §1

[8] = test system: 293T embryonic kidney cells; assay: Cytostatic assay, 293T; assay type: cell-based; settings: Homo sapiens, HEK-293T; Table 3
Experimental: as §1

[9] = test system: PC-3 (UZ) prostate cancer cells; assay: Cytostatic assay, PC-3 (UZ); assay type: cell-based; settings: Table 4
Experimental: as §1

[10] = test system: 22Rv1 (UZ) prostate cancer cells; assay: Cytostatic assay, 22Rv1 (UZ); assay type: cell-based; settings: Homo sapiens, Table 4
Experimental: as §1

[11] = test system: HEL embryonic lung fibroblast cells; assay: Cytostatic assay, HEL; assay type: cell-based; settings: Homo sapiens, Table 3
Experimental: as §1

MT-4 cells = assay: Cytostatic assay, MT-4; assay type: cell-based; settings: Homo sapiens, MT4; Table 2
Experimental: as §1

CEM cells = assay: Cytostatic assay, CEM; assay type: cell-based; settings: Homo sapiens, CCRF-CEM
Experimental: as §1

[12] = test system: Caki-1 kidney carcinoma cells; assay: Cytostatic assay, Caki-1; assay type: cell-based; settings: Homo sapiens, Table 3
Experimental: as §1

[13] = test system: OST TK- osteosarcoma cells; assay: Cytostatic assay, OST TK-; assay type: cell-based; settings: Homo sapiens; Table 3
Experimental: as §1

[14] = test system: THP-1, human monocytic cells; assay: Cytostatic assay, THP-1; assay type: cell-based; settings: Table 2
Experimental: as §1

[15] = test system: BAEC aortic endothelial cells; assay: Cytostatic assay, BAEC; assay type: cell-based, bovine; settings: Bos taurus, Table 3
Experimental: as §1

PLC/PRF/5 hepatoma cells = assay: Cytostatic assay, PLC/PRF/5; assay type: cell-based; settings: Homo sapiens, Table 4
Experimental: as §1

HepG2C3A hepatoma cells = assay: Cytostatic assay, HepG2C3A; assay type: cell-based; settings: Homo sapiens, HepG2/C3A; Table 4
Experimental: as §1

BPH-1 (UZ) = assay: Cytostatic assay, BPH-1 (UZ); assay type: cell-based; settings: Homo sapiens, Table 4
Experimental: as §1

[16] = test system: Raji, human B-lymphoma cells; assay: Cytostatic assay, Raji; assay type: cell-based; settings: Table 2
Experimental: as §1

Molt4/C8 cells = assay: Cytostatic assay, Molt4/C8; assay type: cell-based; settings: Table 2
Experimental: as §1

[17] = test system: HeLa cervix carcinoma cells; assay: Cytostatic assay, HeLa; assay type: cell-based, human; settings: Homo sapiens; Table 3; read-out: Cytostatic activity (μM) Hela
Experimental: as §1

[18] = test system: MCF-7 mammary carcinoma cells; assay: Cytostatic assay, MCF-7; assay type: cell-based; settings: Homo sapiens, MCF7; Table 3
Experimental: as §1

[19] = test system: Caki-2 kidney carcinoma cells; assay: Cytostatic assay, Caki-2; assay type: cell-based; settings: Homo sapiens, Table 3
Experimental: as §1

[20] = test system: DU145 (UZ) prostate cancer cells; assay: Cytostatic assay, DU145 (UZ); assay type: cell-based; settings: Homo sapiens, DU-145; Table 4
Experimental: as §1

U87 glioma cells = assay: Cytostatic assay, U87; assay type: cell-based; settings: Homo sapiens, U-87 MG; Table 3
Experimental: as §1

[21] = Table 1a, read-out: IC50 μM (CEM)
[22] = Table 2, read-out: Cytostatic activity (μM) CEM

IC50 (MT-2 cells) | IC50 (C8166 cells) | IC50 [1] | IC50 [2] | IC50 [3] | IC50 [4] | IC50 [5] | IC50 (HUT-78 cells) | IC50 [6] | IC50 (L1210 cells) | IC50 [7] | IC50 (Huh-7 hepatoma cells) | IC50 (Sup T1 cells) | IC50 [9] | IC50 [10] | IC50 (CEM cells; [21]) | IC50 (CEM cells; [22]) | Structure (SMILES) | IC50 [8] | IC50 [11] | IC50 (MT-4 cells) | further results
0.7 ± 0.3 µM | 0.82 ± 0.16 µM | 0.35 ± 0.064 µM | 1.7 ± 0.14 µM | 0.46 ± 0.35 µM | 0.33 ± 0.099 µM | 0.92 ± 0.08 µM | 0.43 ± 0.24 µM | 0.41 ± 0.028 µM | 1.2 ± 0.4 µM | 2 ± 0.28 µM | 0.71 ± 0.35 µM | 0.54 ± 0.007 µM | 0.52 ± 0.007 µM | 0.19 ± 0.11 µM | 0.76 µM | 0.76 ± 0.48 µM | CCOC(=O)c1cc(CCc2cc(OC)ccc2OC)sc1N [TR587, 2-Amino-5-[2-(2,5-dimethoxy-phenyl)-ethyl]-thiophene-3-carboxylic acid ethyl ester] | 1 ± 0.11 µM | 0.27 ± 0.22 µM | 1.7 ± 0.59 µM | IC50 [12]: 1.4 ± 0.5 µM; IC50 [13]: 0.51 ± 0.42 µM; IC50 [14]: 0.71 ± 0.18 µM; IC50 [15]: 0.93 ± 0.67 µM; IC50 (PLC/PRF/5 hepatoma cells): 0.26 ± 0.15 µM; IC50 (HepG2C3A hepatoma cells): 1.1 ± 0.49 µM; IC50 (BPH-1 (UZ)): 0.39 ± 0.007 µM; IC50 [16]: 1.8 ± 0.42 µM; IC50 (Molt4/C8 cells): 1.1 ± 1 µM; IC50 [17]: 0.33 ± 0.028 µM; IC50 [18]: 0.83 ± 0.35 µM; IC50 [19]: 3.2 ± 2.4 µM; IC50 [20]: 1.4 ± 0.21 µM; IC50 (U87 glioma cells): 1.6 ± 1.1 µM
6.65 ± 1.9 µM | ≥ 200 µM | 5.3 ± 4.3 µM | 66 ± 6.4 µM | 3.9 ± 0.5 µM | 3.1 ± 1.2 µM | 42 ± 2.1 µM | 18 ± 7.1 µM | 66 ± 31 µM | 40 ± 6 µM | 67 ± 23 µM | 21 ± 7.1 µM | > 200 µM | 11 ± 4.2 µM | 61 ± 34 µM | 47 µM | 47 ± 25 µM | N#Cc1cc(CCc2ccccc2)sc1N [TR588, 2-Amino-5-phenethyl-thiophene-3-carbonitrile] | 34 ± 14 µM | 30 ± 6.4 µM | 75 ± 35 µM | IC50 [12]: 1.3 ± 0.4 µM; IC50 [13]: 27 ± 18 µM; IC50 [14]: 8.4 ± 0.28 µM; IC50 [15]: 45 ± 4.9 µM; IC50 (PLC/PRF/5 hepatoma cells): 41 ± 3.5 µM; IC50 (HepG2C3A hepatoma cells): 64 ± 52 µM; IC50 (BPH-1 (UZ)): ≥ 100 µM; IC50 [16]: 39 ± 21 µM; IC50 (Molt4/C8 cells): 8.5 ± 3.4 µM; IC50 [17]: 27 ± 28 µM; IC50 [18]: 26 ± 2.1 µM; IC50 [19]: 78 ± 69 µM; IC50 [20]: 24 ± 4.9 µM; IC50 (U87 glioma cells): 46 ± 7.8 µM
48 ± 7.1 µM | ≥ 200 µM | 4.3 ± 3.2 µM | > 100 µM | 73 ± 30 µM | 8.5 ± 7.8 µM | > 200 µM | 142 ± 83 µM | > 100 µM | 101 ± 28 µM | 210 ± 17 µM | 46 ± 34 µM | 99 µM | 8.6 ± 0.21 µM | 77 ± 27 µM | 63 µM | 63 ± 7.8 µM | COC(=O)c1cc(CCc2ccccn2)sc1N [TR596, 2-Amino-5-(2-pyridin-2-yl-ethyl)-thiophene-3-carboxylic acid methyl ester] | > 100 µM | 43 ± 9.2 µM | > 100 µM | IC50 [12]: 17 ± 13 µM; IC50 [13]: 135 ± 92 µM; IC50 [14]: 116 ± 49 µM; IC50 [15]: > 100 µM; IC50 (PLC/PRF/5 hepatoma cells): > 100 µM; IC50 (HepG2C3A hepatoma cells): 69 ± 45 µM; IC50 (BPH-1 (UZ)): > 100 µM; IC50 [16]: 76 ± 35 µM; IC50 (Molt4/C8 cells): 21 ± 4 µM; IC50 [17]: 45 ± 3 µM; IC50 [18]: 72 ± 45 µM; IC50 [19]: > 200 µM; IC50 [20]: > 100 µM; IC50 (U87 glioma cells): > 100 µM
38 ± 15 µM | ≥ 200 µM | 7.4 ± 0.75 µM | > 100 µM | 63 ± 15 µM | 6.3 ± 4.7 µM | > 200 µM | 59 ± 33 µM | > 100 µM | 235 ± 49 µM | 164 ± 30 µM | 78 ± 32 µM | 147 ± 66 µM | 12 ± 5.5 µM | ≥ 100 µM | 50 µM | 50 ± 6.4 µM | COC(=O)c1cc(CCc2cccnc2)sc1N [TR597, 2-Amino-5-(2-pyridin-3-yl-ethyl)-thiophene-3-carboxylic acid methyl ester] | > 100 µM | ≥ 100 µM | > 100 µM | IC50 [12]: 7.7 ± 0.5 µM; IC50 [13]: ≥ 111 µM; IC50 [14]: > 200 µM; IC50 [15]: > 100 µM; IC50 (PLC/PRF/5 hepatoma cells): > 100 µM; IC50 (HepG2C3A hepatoma cells): > 100 µM; IC50 (BPH-1 (UZ)): > 100 µM; IC50 [16]: > 100 µM; IC50 (Molt4/C8 cells): 47 ± 15 µM; IC50 [17]: 170 ± 25 µM; IC50 [18]: 71 ± 30 µM; IC50 [19]: > 200 µM; IC50 [20]: 60 ± 21 µM; IC50 (U87 glioma cells): > 100 µM
